Common to all, as to assay type: cell-based
Experiment [1] deals with NACHT, LRR and PYD domains-containing protein 3 (Mus musculus) (UniProt Q8R4B8). As to the kind of experiment: Inhibition of NLRP3 inflammasome activation in LPS-primed mouse BMDM cells assessed as reduction in LPS/ATP induced cleaved caspase 1 level in supernatant preincubated for 30 mins followed by LPS addition for 3 hrs prior to ATP addition for 30 mins by Western blot analysis. The following applies: dose 4-10 µM, time 4.0 hrs, DDE = dose-dependent effect. A general note: In western blotting, separated proteins are transferred to a membrane and probed.

Experiment [2] concerns the target NACHT, LRR and PYD domains-containing protein 3 (Homo sapiens) (UniProt Q96P20). As to the kind of experiment: Inhibition of NLRP3 inflammasome assembly in human THP-1 cells assessed as reduction in ASC oligomers formation.
Experiment [3] has as its target NACHT, LRR and PYD domains-containing protein 3 (Mus musculus) (UniProt Q8R4B8). As to the kind of experiment: Inhibition of NLRP3 inflammasome activation in LPS-primed mouse BMDM cells assessed as reduction in LPS/ATP induced cleaved IL-1beta release in supernatant preincubated for 30 mins followed by LPS addition for 3 hrs prior to ATP addition for 30 mins by Western blot analysis. The following applies: dose 4-10 µM, time 4.0 hrs, DDE = dose-dependent effect.

For experiment [4] the target is unchanged. As to the kind of experiment: Inhibition of NLRP3 inflammasome assembly in LPS/nigericin stimulated mouse BMDM cells assessed as reduction in NLRP3 specks. The note with it: concentration not given here.
The target is the same in experiment [5]. As to the kind of experiment: Inhibition of NLRP3 inflammasome activation in LPS-primed mouse BMDM cells assessed as reduction in LPS/ATP induced cleaved IL-1beta release in supernatant at 2 uM preincubated for 30 mins followed by LPS addition for 3 hrs prior to ATP addition for 30 mins by Western blot analysis. The following applies: time 4.0 hrs.

Experimental findings from ChEMBL document CHEMBL5120798, “Design and synthesis of an N-benzyl 5-(4-sulfamoylbenzylidene-2-thioxothiazolidin-4-one scaffold as a novel NLRP3 inflammasome inhibitor” (Bioorg Med Chem Lett, 2022) are described below.

Broadly, the inhibition is the relative decrease from the control value, in per cent.

Calls of active or inactive are those of the source. The rule behind the calls is not given here.

Sequence of NACHT, LRR and PYD domains-containing protein 3 (Mus musculus) (Q8R4B8 whole entry, the tested form may be a part): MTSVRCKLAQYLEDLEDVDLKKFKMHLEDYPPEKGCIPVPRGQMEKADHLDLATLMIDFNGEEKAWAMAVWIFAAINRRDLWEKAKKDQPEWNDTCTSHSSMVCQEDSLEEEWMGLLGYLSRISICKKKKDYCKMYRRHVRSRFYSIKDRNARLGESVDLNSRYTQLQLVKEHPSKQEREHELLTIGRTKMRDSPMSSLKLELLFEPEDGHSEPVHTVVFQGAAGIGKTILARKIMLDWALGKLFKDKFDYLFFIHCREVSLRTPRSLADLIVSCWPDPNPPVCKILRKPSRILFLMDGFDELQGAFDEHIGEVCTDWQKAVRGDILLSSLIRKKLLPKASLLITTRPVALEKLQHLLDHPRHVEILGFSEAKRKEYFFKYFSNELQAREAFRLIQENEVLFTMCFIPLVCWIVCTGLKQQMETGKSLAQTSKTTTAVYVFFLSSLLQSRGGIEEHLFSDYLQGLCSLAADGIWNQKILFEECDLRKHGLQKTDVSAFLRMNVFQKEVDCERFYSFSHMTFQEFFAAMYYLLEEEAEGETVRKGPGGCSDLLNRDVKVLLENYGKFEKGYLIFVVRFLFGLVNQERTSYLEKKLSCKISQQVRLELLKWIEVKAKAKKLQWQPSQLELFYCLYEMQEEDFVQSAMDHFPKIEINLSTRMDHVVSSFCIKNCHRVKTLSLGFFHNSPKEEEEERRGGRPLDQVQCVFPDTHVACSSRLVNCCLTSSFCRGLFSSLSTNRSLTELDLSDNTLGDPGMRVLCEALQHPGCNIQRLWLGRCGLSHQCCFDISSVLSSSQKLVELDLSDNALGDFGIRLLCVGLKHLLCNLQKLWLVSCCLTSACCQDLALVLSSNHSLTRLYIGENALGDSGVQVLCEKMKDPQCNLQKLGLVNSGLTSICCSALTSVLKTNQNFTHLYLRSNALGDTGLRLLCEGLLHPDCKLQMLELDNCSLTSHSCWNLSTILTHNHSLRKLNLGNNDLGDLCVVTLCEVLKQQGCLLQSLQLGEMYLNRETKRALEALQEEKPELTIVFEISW
Sequence of NACHT, LRR and PYD domains-containing protein 3 (Homo sapiens) (Q96P20 whole entry, the tested form may be a part): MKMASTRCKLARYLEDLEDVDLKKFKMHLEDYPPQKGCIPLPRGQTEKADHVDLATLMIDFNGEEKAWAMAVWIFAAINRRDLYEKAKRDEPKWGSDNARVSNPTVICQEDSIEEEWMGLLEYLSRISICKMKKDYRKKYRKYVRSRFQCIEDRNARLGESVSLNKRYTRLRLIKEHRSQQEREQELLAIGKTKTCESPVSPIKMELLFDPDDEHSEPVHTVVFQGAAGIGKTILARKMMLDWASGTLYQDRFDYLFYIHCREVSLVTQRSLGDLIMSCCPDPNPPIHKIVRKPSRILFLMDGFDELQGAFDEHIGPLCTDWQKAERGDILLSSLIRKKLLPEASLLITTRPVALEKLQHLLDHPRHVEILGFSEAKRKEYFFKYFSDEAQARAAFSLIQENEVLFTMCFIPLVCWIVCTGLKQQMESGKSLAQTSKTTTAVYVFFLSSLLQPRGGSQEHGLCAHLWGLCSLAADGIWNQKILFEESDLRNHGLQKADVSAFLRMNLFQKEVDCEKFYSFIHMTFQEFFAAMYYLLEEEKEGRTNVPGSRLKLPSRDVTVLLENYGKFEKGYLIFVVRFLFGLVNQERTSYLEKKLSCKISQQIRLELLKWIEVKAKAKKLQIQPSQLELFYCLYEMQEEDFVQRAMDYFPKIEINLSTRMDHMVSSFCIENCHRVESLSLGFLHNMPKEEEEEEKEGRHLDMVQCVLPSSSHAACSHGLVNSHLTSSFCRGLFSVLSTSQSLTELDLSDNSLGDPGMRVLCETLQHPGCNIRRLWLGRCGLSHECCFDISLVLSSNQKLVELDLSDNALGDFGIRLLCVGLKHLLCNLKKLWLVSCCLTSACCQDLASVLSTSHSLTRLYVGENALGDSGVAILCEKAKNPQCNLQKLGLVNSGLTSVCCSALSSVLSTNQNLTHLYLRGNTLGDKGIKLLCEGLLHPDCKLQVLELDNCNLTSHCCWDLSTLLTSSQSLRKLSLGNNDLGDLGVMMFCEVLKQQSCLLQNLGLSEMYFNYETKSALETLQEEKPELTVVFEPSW

As to `COc1ccc(Cl)c(CN2C(=O)/C(=C/c3ccc(S(N)(=O)=O)cc3)SC2=S)c1`, the values for the inhibition entry in experiment [1], in experiment [3] and in experiment [4] were “Dde”, “Dde” and 60%, respectively. In addition, the inhibition result in experiment [2] was “Active”.

Consider `CCCCOc1ccc(Cl)cc1CN1C(=O)/C(=C/c2ccc(S(N)(=O)=O)cc2)SC1=S`, for which the inhibition result in experiment [5] is “Active”.

With `NS(=O)(=O)c1ccc(/C=C2\SC(=S)N(Cc3cccc(Cl)c3)C2=O)cc1`, the inhibition result in experiment [5] is “Active”.

Take `COc1ccc(Cl)cc1CN1C(=O)/C(=C/c2ccc(S(N)(=O)=O)cc2)SC1=S`: the inhibition entry is “Dde” in experiment [1], “Dde” in experiment [3] and 60% in experiment [4]. Further, in experiment [2], the inhibition result is “Active”.

`COc1ccccc1CN1C(=O)/C(=C/c2ccc(S(N)(=O)=O)cc2)SC1=S`: the inhibition entry in experiment [5] was “Active”.
